From PMC3062741 (Behavioural brain research, 2011)

System: Male Sprague-Dawley rats
Assay: Locomotor activity
Type: in vivo, rat
Conditions: for Locomotor Activity Day 1, mean distance traveled: 60-min session

COC(=O)C(c1ccccc1)C1CCCCN1 (stereo not drawn) [MPD, Methylphenidate]
time course of locomotor activity compared to saline-treated rats (Day 1, EC rats, MPD 3 mg/kg): significantly greater during the 25–60-min intervals
time course of locomotor activity compared to saline-treated rats (Day 1, EC rats, MPD 10 mg/kg): significantly greater during the 20–60-min intervals
time course of locomotor activity compared to saline-treated rats (Day 1, IC rats, MPD 3 mg/kg): significantly greater during the 30-, 50- and 60-min intervals
time course of locomotor activity compared to saline-treated rats (Day 1, IC rats, MPD 10 mg/kg): significantly greater during the 15–60-min intervals
time course of locomotor activity compared to saline-treated rats (Day 1, SC rats, MPD 3 mg/kg): more active than saline-treated SC rats during the 30–60-min time intervals
time course of locomotor activity compared to saline-treated rats (Day 1, SC rats, MPD 10 mg/kg): more active than saline-treated SC rats during the 15–60-min time intervals
time course of locomotor activity compared to saline-treated rats (Day 10, EC rats, MPD 3 mg/kg): only IC rats treated with 3 mg/kg of MPD displayed greater activity
time course of locomotor activity compared to saline-treated rats (Day 10, EC rats, MPD 10 mg/kg): more active than the saline controls during each time interval
time course of locomotor activity compared to saline-treated rats (Day 10, IC rats, MPD 3 mg/kg): significantly greater activity in IC rats relative to saline controls beginning at the 30-min time interval
time course of locomotor activity compared to saline-treated rats (Day 10, IC rats, MPD 10 mg/kg): more active than the saline controls during each time interval except the 5-min interval in the IC group
time course of locomotor activity compared to saline-treated rats (Day 10, SC rats, MPD 3 mg/kg): more active than saline-treated SC rats during the 10–60-min time intervals
time course of locomotor activity compared to saline-treated rats (Day 10, SC rats, MPD 10 mg/kg): more active than saline-treated SC rats during the 10–60-min time intervals
total locomotor activity across Days 1–10 compared with Day 1 (EC rats, MPD 3 mg/kg once daily): greater locomotor activity on Day 2 than on Day 1
Locomotor Activity Day 10, mean distance traveled (EC rats, MPD 3 mg/kg s.c. once daily): 4438 cm
Locomotor Activity Day 1, mean distance traveled (EC rats, MPD 3 mg/kg s.c.): 9482 cm
total locomotor activity across Days 1–10 compared with Day 1 (EC rats, MPD 10 mg/kg once daily): greater locomotor activity on Days 4, 5 and 10 than on Day 1
Locomotor Activity Day 10, mean distance traveled (EC rats, MPD 10 mg/kg s.c. once daily): 29196 cm
Locomotor Activity Day 1, mean distance traveled (EC rats, MPD 10 mg/kg s.c.): 15665 cm
total locomotor activity across Days 1–10 compared with Day 1 (IC rats, MPD 3 mg/kg once daily): greater locomotor activity on Days 2–9 than on Day 1
Locomotor Activity Day 10, mean distance traveled (IC rats, MPD 3 mg/kg s.c. once daily): 13980 cm
Locomotor Activity Day 1, mean distance traveled (IC rats, MPD 3 mg/kg s.c.): 9775 cm
total locomotor activity across Days 1–10 compared with Day 1 (IC rats, MPD 10 mg/kg once daily): no significant main effect of Day
Locomotor Activity Day 10, mean distance traveled (IC rats, MPD 10 mg/kg s.c. once daily): 28531 cm
Locomotor Activity Day 1, mean distance traveled (IC rats, MPD 10 mg/kg s.c.): 20653 cm
total locomotor activity across Days 1–10 compared with Day 1 (SC rats, MPD 3 mg/kg once daily): activity on Days 2–10 was greater than activity on Day 1
Locomotor Activity Day 10, mean distance traveled (SC rats, MPD 3 mg/kg s.c. once daily): 23675 cm
Locomotor Activity Day 1, mean distance traveled (SC rats, MPD 3 mg/kg s.c.): 15020 cm
total locomotor activity across Days 1–10 compared with Day 1 (SC rats, MPD 10 mg/kg once daily): locomotor activity on Days 3, 5–7 and 10 was greater than that on Day 1
Locomotor Activity Day 10, mean distance traveled (SC rats, MPD 10 mg/kg s.c. once daily): 31954 cm
Locomotor Activity Day 1, mean distance traveled (SC rats, MPD 10 mg/kg s.c.): 22406 cm
